Data set [1] deals with M17 cells. The class given is cell-based.
The subject of data set [2] is primary rat granule cerebellar neurons (RGCN).
Data set [3] relates to M17 cells.
The subject of data set [4] is neuronal cell lines M17, Neuro2a and non-neuronal cell lines HEK293, HIT-T15. The class given is cell-based.
Data set [5] has as its system HIT-T15 cells. The class given is cell-based, human.
Data set [6] relates to HIT-T15 cells. The class given is cell-based, human. This is another data set of the same source.

The values that follow come from patent US8492109B2 (priority 2009, dated 2013).

With `CO/C1=C\C(C)=C\[C@@H](C)[C@@H](O)[C@@H](C)C/C(C)=C/C=C/[C@H](OC)[C@@H]([C@@H](C)[C@@H](O)[C@H](C)[C@@]2(O)C[C@@H](O)[C@H](C)[C@@H](C(C)C)O2)OC1=O` [Bafilomycin, Bafilomycin A1], in the data set on M17 cells [1], the “effect on efficiency of plasmid DNA transfection mediated by FuGene (fluorescent protein expression)” value is reported as “no inhibitory effect”. For the same compound, in data set [2], the “SNAP25 cleavage in bafilomycin-treated cells” value was “a small amount of SNAP25 cleavage was observed”, the “cytotoxicity (visual)” value is given as “Some cytoxicity” and the “inhibition of BoNT/A intoxication (SNAP25 cleavage)” value is reported as “completely inhibit”. Moreover, the bafilomycin cytotoxicity result in the data set on HEK293 cells is “particularly susceptible to bafilomycin toxicity”. Moreover, in the data set with M17 cells [3], the “inhibition of SNAP25 cleavage by BoNT/A holotoxin” value is given as “inhibited SNAP25 cleavage”. Also, in data set [4], the “inhibition of BoNT intoxication” value is given as “clearly inhibited” and the “sensitivity of functional transduction of BoNT Lc to bafilomycin” value is “fully sensitive”. Besides, in the data set on HIT-T15 cells [5], the “inhibition of functional internalization of recombinant BoNT/A Lc” value is recorded as “inhibited functional internalization”. The “effect on efficiency of plasmid DNA transfection mediated by FuGene (fluorescent protein expression)” value in the data set on HIT-T15 cells [6] is listed as “no inhibitory effect”.
